{"source": "patent US20240216336A1", "about": "“CLOTRIMAZOLE AS A TREATMENT FOR IMMUNODEFICIENCY DISORDERS” (Northwestern University, priority 2020, published 2024)", "key": {"BMDMs": {"tested_on": "BMDMs", "test": "Inflammatory cytokine mRNA expression (quantitative RT-PCR) in BMDMs", "type": "cell-based, mouse", "method": "(§1) BMDMs were isolated from ΔE1HK1 and WT mice as previously reported (Rodriguez et al., 2019). Briefly, bone marrow was isolated from the tibia and femur of 8-10-week-old mice by puncturing one end of the femur and tibia with a 27g needle and placing it in a 0.5 ml tube with a hole punched in the bottom. The 0.5 ml tube containing the bone was then placed in a 1.75 ml tube and centrifuged at 5,000×g for 3.5 minutes. Bone marrow was then collected into the 1.75 ml tube and resuspend in 1 ml of RBC lysis buffer (abcam) for 1 minute and then transferred to a 50 ml tube with 4 ml RBC lysis buffer and incubated for 4 minutes. Next, 35 ml of PBS was added and centrifuged at 300×g for 5 min and supernatant was then decanted and cell pellet was re-suspended in complete RPMI with 20 ng/ml mCSF (Preprotech). Cells were counted using a hemocytometer and plated in 10 cm tissue culture plates at a density of 3-million cells/plate. Cells were cultured with 20 ng/mL mCSF to induce differentiation into BMDMs. Media was changed every 2 days and BMDMs were harvested by scraping on day 6 and plated in 12 well plates at a density of 1-million cells/well for mRNA extraction experiments. BMDMs were stimulated in the same manner as peritoneal macrophages (LPS dose for BMDMs was 200 ng/ml).\n(§2) RNA was isolated from cells or tissues using RNA-STAT60 (Teltest) followed by chloroform extraction and precipitation. Reverse transcription was carried out using qScript cDNA Synthesis Kit (Quanta Bio). The resulting cDNA was amplified quantitatively using PerfeCTa SYBR Green Mix (Quanta Bio) on a 7500 Fast Real-time PCR System (Applied Biosystems). The relative gene expression was determined using differences in Ct values between gene of interest and house-keeping control genes. Complete list of primers can be found in Key Reagents Table (Table 1)."}, "BMDMs from ΔE1HK1 mice": {"tested_on": "BMDMs from ΔE1HK1 mice", "test": "IL-1β ELISA from BMDM media", "type": "cell-based, mouse", "conditions": "4 hrs LPS (200 ng/ml) ± 6AN (1 mM) or OT (50 μM), then 30 min ATP (2.5 mM)", "method": "as §1, with “Cells were cultured with 20 ng/mL mCSF to induce differentiation into BMDMs. Media was changed every 2 days and BMDMs were harvested by scraping on day 6 and plated in 12 well plates at a density of 1-million cells/well for mRNA extraction experiments. BMDMs were stimulated in the same manner as peritoneal macrophages (LPS dose for BMDMs was 200 ng/ml).” left out\n[…] Cell supernatant was collected and analyzed by ELISA according to manufacturer's instructions for IL-1β (DY401), IL-6 (DY406), and TNFα (DY410).\n(§3) The following kits were used according to the manufacturer's instructions: Promega NADP/NADPH quantification kit (G9081) and […] (G9071); Glyceraldehyde-3-Phosphate Dehydrogenase Activity Assay kit (abcam); ELISAs for IL-1β (DY401), IL-6 […]."}, "GAPDH [1]": {"biological_target": "T1, GAPDH (Mus musculus, UniProt P16858)", "T1 sequence (P16858 whole entry)": "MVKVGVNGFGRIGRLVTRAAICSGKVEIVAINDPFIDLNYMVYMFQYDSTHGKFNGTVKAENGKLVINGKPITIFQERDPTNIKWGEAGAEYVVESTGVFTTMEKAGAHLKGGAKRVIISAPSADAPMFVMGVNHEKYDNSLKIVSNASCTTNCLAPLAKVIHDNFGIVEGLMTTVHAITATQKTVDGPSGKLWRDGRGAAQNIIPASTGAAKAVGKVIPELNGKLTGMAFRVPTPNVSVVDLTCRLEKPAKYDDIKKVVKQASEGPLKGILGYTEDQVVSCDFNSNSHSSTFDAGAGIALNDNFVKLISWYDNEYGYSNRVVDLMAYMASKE", "test": "GAPDH activity normalized to total protein in RAW264.7 cells", "type": "cell-based", "parameters": "endogenous in cells; host or cells: RAW264.7", "method": "(§4) RAW264.7 cells were a gift from Jason A. Wertheim MD, PhD. HepG2 and HEK293T cells were obtained from ATCC. RAW264.7, HEK293T, and HepG2 cells were cultured in Dulbecco's Modified Eagle's Medium (DMEM) (Corning) supplemented with 10% FBS (Atlanta Biologicals), 2 mM glutamine (HyClone), and 1 mM sodium pyruvate (Corning). […]\nas §3"}, "HK1": {"biological_target": "T2, HK1 (Mus musculus, UniProt P17710)", "T2 construct": "IF of HK1 and mitochondria (MT-Red) imaging in RAW264.7 cells±clotrimazole (CLT) (20 μM); endogenous in cells; the running text says WT BMDMs", "T2 sequence (P17710 1-918 isoform P17710-3)": "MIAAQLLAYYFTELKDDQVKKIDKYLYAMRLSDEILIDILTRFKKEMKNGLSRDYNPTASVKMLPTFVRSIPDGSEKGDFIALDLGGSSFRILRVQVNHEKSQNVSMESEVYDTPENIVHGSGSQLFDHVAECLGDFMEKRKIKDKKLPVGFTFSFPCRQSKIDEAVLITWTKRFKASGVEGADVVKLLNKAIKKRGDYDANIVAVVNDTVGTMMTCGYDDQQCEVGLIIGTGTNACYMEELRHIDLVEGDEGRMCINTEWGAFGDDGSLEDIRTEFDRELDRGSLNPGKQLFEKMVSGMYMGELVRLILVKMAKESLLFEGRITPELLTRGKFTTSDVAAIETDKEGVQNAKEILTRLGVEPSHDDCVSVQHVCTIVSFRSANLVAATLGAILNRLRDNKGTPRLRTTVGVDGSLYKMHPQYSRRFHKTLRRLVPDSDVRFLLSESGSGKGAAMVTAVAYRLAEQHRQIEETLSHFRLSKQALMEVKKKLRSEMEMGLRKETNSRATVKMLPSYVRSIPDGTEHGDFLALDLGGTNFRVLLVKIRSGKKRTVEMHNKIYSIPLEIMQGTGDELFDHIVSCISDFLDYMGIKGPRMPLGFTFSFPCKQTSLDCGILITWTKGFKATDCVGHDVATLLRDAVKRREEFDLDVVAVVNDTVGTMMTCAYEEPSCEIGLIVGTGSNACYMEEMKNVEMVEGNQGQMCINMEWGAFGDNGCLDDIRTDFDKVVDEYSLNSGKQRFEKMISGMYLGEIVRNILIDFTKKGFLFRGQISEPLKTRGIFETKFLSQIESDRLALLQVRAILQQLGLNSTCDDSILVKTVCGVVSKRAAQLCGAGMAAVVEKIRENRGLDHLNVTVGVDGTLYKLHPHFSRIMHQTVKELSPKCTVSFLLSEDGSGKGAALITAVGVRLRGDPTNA", "test": "Immunofluorescence of HK1 and mitochondria (MT-Red) with colocalization analysis", "type": "cell-based", "conditions": "WT BMDMs; CLT (20 μM)", "quoted_text": "Glass-bottom confocal dishes (35 mm; VWR) were coated with 60 nM fibronectin (Sigma-Aldrich), diluted in 0.1% gelatin overnight. Before plating cells, coated confocal dishes were washed twice with PBS. BMDMs (100,000 cells/well), PMs (100,000 cells/well), HepG2 (50,000 cells/well), or RAW264.7 (50,000 cells/well) cells were plated in their respective growth media (complete DMEM or RPMI) and allowed to settle overnight before immunofluorescence (IF) staining. For fixed cell immunofluorescence (IF), cells were plated in 6-well plates (Corning) containing 15 mm glass coverslips (Fisher-Scientific) coated in gelatin and fibronectin. Prior to fixation, growth media was removed and cells were washed 2× with PBS. Cells were fixed with 1 ml of ice-cold 4% formaldehyde for 10 min at room temperature (4% formaldehyde prepared from 16% stock and diluted in PBS). After fixing the cells, plates were washed with PBS 2× and permeabilized with 0.3% triton-X-100 in PBS for 10 min at room temperature. Then, cells were blocked with 10% FBS/PBS for 1 hour at room temperature and subsequently treated with primary antibody diluted in 10% FBS/PBS solution over-night. The next day, secondary antibody was diluted in 10% FBS/PBS at 1:1000 and incubated for 2 hrs at room temperature. […] Images were quantified using ImageJ."}, "RAW264.7 cells": {"tested_on": "RAW264.7 cells", "test": "Inflammatory cytokine mRNA expression (quantitative RT-PCR) in RAW264.7 cells", "type": "cell-based, mouse", "method": "as §4, §2"}, "GAPDH [2]": {"biological_target": "T1, GAPDH", "test": "GAPDH activity normalized to total protein in BMDMs", "type": "cell-based", "parameters": "endogenous in cells", "conditions": "±CGP3466 for 4 hrs", "method": "as §1, with “Media was changed every 2 days and BMDMs were harvested by scraping on day 6 and plated in 12 well plates at a density of 1-million cells/well for mRNA extraction experiments. BMDMs were stimulated in the same manner as peritoneal macrophages (LPS dose for BMDMs was 200 ng/ml).” left out\nas §3"}, "[3]": {"conditions": "4 hr 6AN (1 mM) or OT (50 μM), ±LPS (200 ng/ml)"}, "[4]": {"conditions": "16 hrs IFNγ priming, then 4 hrs LPS (200 ng/ml) ± 6AN (1 mM) or OT (50 μM)"}, "[5]": {"conditions": "CLT (20 μM) treated cells vs vehicle treated controls"}}}
{"smiles": "Cc1ncc(C[n+]2csc(CCO)c2C)c(=O)[nH]1", "note": "[OT, oxythiamine]", "values": [{"measurement": "increase in IL-1β mRNA levels in BMDMs of ΔE1HK1 mice", "setting": "BMDMs; [3]", "value": "abolished"}, {"measurement": "increase in IL-6 mRNA levels in BMDMs of ΔE1HK1 mice", "setting": "BMDMs; [3]", "value": "abolished"}, {"measurement": "increase in IL-1β mRNA levels in IFN-γ primed BMDMs of ΔE1HK1 mice", "setting": "BMDMs; [4]", "value": "rescued"}, {"measurement": "increase in IL-6 mRNA levels in IFN-γ primed BMDMs of ΔE1HK1 mice", "setting": "BMDMs; [4]", "value": "rescued"}, {"measurement": "IL-1β protein release (ELISA), higher release in ΔE1HK1 BMDMs", "setting": "BMDMs from ΔE1HK1 mice", "value": "reversed"}]}
{"smiles": "Clc1ccccc1C(c1ccccc1)(c1ccccc1)n1ccnc1", "note": "[CLT, Clotrimazole]", "values": [{"measurement": "GAPDH activity in RAW264.7 cells after LPS treatment", "setting": "GAPDH [1]; ±CLT (20 μM)", "value": "significant decrease"}, {"measurement": "HK1 dislocation from the mitochondria", "setting": "HK1", "value": "significant increase"}, {"measurement": "IL-1β mRNA after LPS stimulation", "setting": "RAW264.7 cells; [5]", "value": "significant increase"}, {"measurement": "IL-6 mRNA after LPS stimulation", "setting": "RAW264.7 cells; [5]", "value": "significant increase"}, {"measurement": "TNFα mRNA after LPS stimulation", "setting": "RAW264.7 cells; [5]", "value": "significant increase"}, {"measurement": "cytokine mRNA levels at baseline", "setting": "RAW264.7 cells; CLT (20 μM), no LPS", "value": "minimal change"}, {"measurement": "production of inflammatory cytokines including IL-1β, TNFα, and IL-6", "setting": "RAW264.7 cells; macrophages in vitro (summary statement)", "value": "elevated production"}]}
{"smiles": "C#CCN(C)CC1=Cc2ccccc2Oc2ccccc21.O=C(O)/C=C\\C(=O)O", "note": "[CGP3466, CGP 3466 maleate (CAS 200189-97-5)]", "values": [{"measurement": "GAPDH activity in RAW264.7 cells", "setting": "GAPDH [1]; LPS (200 ng/ml) ±CGP3466", "value": "decreased"}, {"measurement": "increase in IL-1β mRNA with LPS in RAW264.7 cells", "setting": "RAW264.7 cells; ±LPS (200 ng/ml) and ±CGP3466 for 4 hrs", "value": "amplified"}, {"measurement": "difference in GAPDH activity of BMDMs between WT and ΔE1HK1 mice", "setting": "GAPDH [2]", "value": "abolished"}, {"measurement": "IL-1β mRNA expression in WT BMDMs", "setting": "BMDMs; ±LPS and ±CGP3466 for 4 hrs, compared with ΔE1HK1 BMDMs", "value": "increased IL-1β mRNA expression in WT BMDMs to the level of the hyper-inflamed ΔE1HK1 BMDMs"}]}
